Measured values taken from patent US9409952B2, “Peptide-compound cyclization method” (Chugai Seiyaku Kabushiki Kaisha, priority 2011, dated 2016).
Read-outs that look alike come from different tables or passages of the source. Starred links: 1 amine or outer side, 2 acyl side, 3 side chain; linkers in the order of their positions; H or OH if unused. Positions of bridges follow the written chain, without caps; N, C: chain ends. Non-standard residues stand in square brackets, D forms with d. Residues, ends and D or L forms follow the SMILES beside them. ξ: configuration not given here. *: point of attachment. Phe(4-CF3) = N[C@@H](Cc1ccc(C(F)(F)F)cc1)C(=O)O; NMePhe(3-Cl) = CN[C@@H](Cc1cccc(Cl)c1)C(=O)O; NMeF = CN[C@@H](Cc1ccccc1)C(=O)O; NMeGABA = CN(CCCC(=O)[*:2])[*:1]; NMeI = CC[C@H](C)[C@H](NC)C(=O)O; NMeβAla = CN(CCC(=O)[*:2])[*:1]; NMeL = CN[C@@H](CC(C)C)C(=O)O; ξNMeF = CNC(Cc1ccccc1)C(=O)O; NMeV = CN[C@H](C(=O)O)C(C)C; NMeA = CN[C@@H](C)C(=O)O; Piperidide = C1CCN(*)CC1; dNMeA = CN[C@H](C)C(=O)O; β3hA = C[C@H](N)CC(=O)O; Sar = CNCC(=O)O; tBu = CC(C)(C)*

Assays:
[1] = Metabolic stability in human hepatic microsome; format: in vitro ADME
[2] = PAMPA (parallel artificial membrane permeability assay); format: in vitro ADME; conditions: for Papp at 18 hours, 50 µM: PAMPA
Outline: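 Artificial membrane was 10% (w/v) egg lecithin plus 0.5% (w/v) cholesterol in dodecane on a PVDF filter. A 10 mM DMSO stock was added at 0.5% (v/v) to donor buffer (50 mM MOPSO, pH 6.5, 5.0% glycocholic acid). After 18 h at 37 °C, LC/MS or LC/UV gave donor and acceptor levels for Pe.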

[3] = microsomes, pH 7.4, human hepatic microsome, NADPH(+), read-out: CL NADPH(+)
[4] = membrane permeation rate (Pe), 50 mM MOPSO buffer pH 6.5 with 5.0% glycocholic acid, 37° C., 18 hours, read-out: iPAMPA Pe
[5] = human, microsomes, pH 7.4, CL NADPH(+)

| SMILES | microsomal CLint at 1 uM [1, 3] [µL/min/mg] | Papp at 18 hours, 50 µM [2, 4] [×10⁻⁶ cm/s] | also measured |
| --- | --- | --- | --- |
| CC(C)C[C@H]1C(=O)N[C@H](C(=O)N2CCCCC2)CC(=O)N(C)CC(=O)N[C@@H]([C@@H](C)O)C(=O)N(C)[C@@H](C)C(=O)N(C)[C@@H](Cc2ccccc2)C(=O)NCC(=O)N(C)[C@@H](Cc2ccccc2)C(=O)N(C)[C@@H](CC(C)C)C(=O)N(C)[C@@H](CC(C)C)C(=O)N1C [DP-175] ([Sar]T[NMeA][NMeF]G[NMeF][NMeL][NMeL][NMeL]D-Piperidide; lactam N-10) | 94 | 48 | – |
| CC(C)C[C@H]1C(=O)N2CCC[C@H]2C(=O)N(C)[C@@H](CC(C)C)C(=O)N[C@@H](C)C(=O)N(C)[C@@H](C(C)C)C(=O)N[C@@H](C)CC(=O)N(C)[C@@H](C)C(=O)N[C@@H]([C@@H](C)O)C(=O)N(C)CC(=O)N(C)[C@@H](Cc2ccccc2)C(=O)N(C)[C@@H](Cc2ccccc2)C(=O)N1C [DP-768] (cyclo(A[NMeV][β3hA][NMeA]T[Sar][NMeF][NMeF][NMeL]P[NMeL])) | – | – | microsomal CLint at 1 uM [1, 5]: 34 µL/min/mg; Papp at 18 hours, 50 µM ([2]; pH 6.5): 25 ×10⁻⁶ cm/s |
| CC[C@H](C)[C@@H]1NC(=O)CCCN(C)C(=O)C[C@@H](C(=O)N(C)[C@@H](Cc2ccccc2)C(=O)N(C)[C@@H](Cc2ccccc2)C(=O)N[C@@H](C)C(=O)N2CCCCC2)NC(=O)[C@H](C(C)C)N(C)C(=O)[C@H](CC(C)C)N(C)C(=O)[C@H](C)NC(=O)CN(C)C(=O)[C@H]([C@@H](C)O)NC(=O)[C@H](Cc2ccccc2)N(C)C(=O)[C@H](C)N(C)C1=O [DP-392] ([NMeGABA]I[NMeA][NMeF]T[Sar]A[NMeL][NMeV]D[NMeF][NMeF]A-Piperidide; lactam N-10) | 18 | 20 | – |
| CC(C)C[C@H]1C(=O)N[C@@H](C(C)C)C(=O)N[C@H](C(=O)N(C)C(Cc2ccccc2)C(=O)N(C)[C@@H](Cc2ccccc2)C(=O)N[C@@H](C)C(=O)N2CCCCC2)CC(=O)N[C@H](C)C(=O)N(C)[C@@H](C)C(=O)N(C)[C@@H](Cc2ccccc2)C(=O)N(C)[C@@H](CC(C)C)C(=O)N[C@@H]([C@@H](C)O)C(=O)N(C)CC(=O)N1C (stereo partly drawn) [DP-315] ([dA][NMeA][NMeF][NMeL]T[Sar][NMeL]VD[ξNMeF][NMeF]A-Piperidide; lactam N-9) | – | – | microsomal CLint at 1 uM [1, 5]: 63 µL/min/mg; Papp at 18 hours, 50 µM ([2]; pH 6.5): 30 ×10⁻⁶ cm/s |
| CC(C)C[C@H]1C(=O)N(C)[C@@H](CC(C)C)C(=O)N[C@@H]([C@@H](C)O)C(=O)N(C)[C@@H](Cc2cccc(Cl)c2)C(=O)NCC(=O)N(C)[C@@H](C(C)C)C(=O)N[C@@H](Cc2ccc(C(F)(F)F)cc2)C(=O)N[C@@H](C)CC(=O)N(C)CCC(=O)N[C@@H](COC(C)(C)C)C(=O)N1C [DP-809] (cyclo(G[NMeV][Phe(4-CF3)][β3hA][NMeβAla]S(tBu)[NMeL][NMeL]T[NMePhe(3-Cl)])) | 201 | – | iPAMPA Pe ([2]; membrane permeation rate (Pe), 50 mM MOPSO buffer pH 6.5 with 5.0% glycocholic acid, 37° C., 18 hours): 7.0E−05 |
| CC[C@H](C)[C@@H]1NC(=O)CN(C)C(=O)[C@H]([C@@H](C)O)NC(=O)[C@H](C(C)C)N(C)C(=O)[C@@H](C)N(C)C(=O)C[C@@H](C(=O)N2CCCCC2)NC(=O)[C@H](CC(C)C)NC(=O)[C@H](Cc2ccccc2)N(C)C(=O)[C@H](CC(C)C)N(C)C(=O)[C@H](C)N(C)C1=O [DP-433] ([dNMeA][NMeV]T[Sar]I[NMeA][NMeL][NMeF]LD-Piperidide; lactam N-10) | 35 | 45 | – |
| CC[C@H](C)[C@H]1C(=O)N(C)[C@@H](CC(C)C)C(=O)N[C@H](C(=O)N2CCCCC2)CC(=O)N[C@H](C)C(=O)N[C@@H]([C@@H](C)O)C(=O)N(C)[C@@H](C)C(=O)N(C)[C@@H](Cc2ccccc2)C(=O)N2CCC[C@H]2C(=O)N[C@@H](C)C(=O)N(C)[C@@H](C(C)C)C(=O)N[C@@H](Cc2ccccc2)C(=O)N1C [DP-65] ([dA]T[NMeA][NMeF]PA[NMeV]F[NMeI][NMeL]D-Piperidide; lactam N-11) | – | – | microsomal CLint at 1 uM [1, 5]: 97 µL/min/mg; Papp at 18 hours, 50 µM ([2]; pH 6.5): 14 ×10⁻⁶ cm/s |
| CC[C@H](C)[C@H](NC(=O)[C@@H]1CC(=O)N[C@@H](C)C(=O)N[C@@H]([C@@H](C)CC)C(=O)N(C)[C@@H](C)C(=O)N(C)[C@@H](Cc2ccccc2)C(=O)N[C@@H]([C@@H](C)O)C(=O)N(C)[C@@H](Cc2ccccc2)C(=O)N[C@@H](CC(C)C)C(=O)N2CCC[C@H]2C(=O)N1)C(=O)N1CCCCC1 [DP-669] (AI[NMeA][NMeF]T[NMeF]LPDI-Piperidide; lactam N-9) | – | – | microsomal CLint at 1 uM [1, 5]: 54 µL/min/mg; Papp at 18 hours, 50 µM ([2]; pH 6.5): 29 ×10⁻⁶ cm/s |
| CC(C)C[C@H]1C(=O)N(C)[C@@H](Cc2ccccc2)C(=O)N[C@H](C(=O)N2CCCCC2)CC(=O)N(C)[C@@H](C)C(=O)N[C@@H](C)C(=O)N[C@@H]([C@@H](C)O)C(=O)N(C)[C@@H](CC(C)C)C(=O)N[C@@H](Cc2ccccc2)C(=O)N1C [DP-699] ([NMeA]AT[NMeL]F[NMeL][NMeF]D-Piperidide; lactam N-8) | 81 | 29 | – |
| CC[C@H](C)[C@H]1C(=O)N(C)[C@@H](C)C(=O)N[C@@H](COC(C)(C)C)C(=O)N(C)[C@@H](CC(C)C)C(=O)N(C)[C@@H](CC(C)C)C(=O)N[C@H](C(=O)N2CCCCC2)CC(=O)N(C)[C@H](C)C(=O)N(C)[C@@H](Cc2ccccc2)C(=O)N[C@@H](C)C(=O)N(C)[C@@H](CC(C)C)C(=O)N[C@@H]([C@@H](C)O)C(=O)N[C@@H](Cc2ccccc2)C(=O)N1C [DP-63] ([dNMeA][NMeF]A[NMeL]TF[NMeI][NMeA]S(tBu)[NMeL][NMeL]D-Piperidide; lactam N-12) | – | 17 | microsomal CLint at 1 uM ([1]; human, human hepatic microsomes, pH 7.4, human hepatic microsome, NADPH(+), read-out: CL NADPH(+)): 58 µL/min/mg |
| CC[C@H](C)[C@@H]1NC(=O)CN(C)C(=O)[C@H]([C@@H](C)O)NC(=O)[C@H](CC(C)C)N(C)C(=O)[C@H](Cc2ccccc2)N(C)C(=O)CCN(C)C(=O)C[C@@H](C(=O)N2CCCCC2)NC(=O)[C@H](CC(C)C)N(C)C(=O)[C@H](CC(C)C)N(C)C1=O [DP-440] ([NMeβAla][NMeF][NMeL]T[Sar]I[NMeL][NMeL]D-Piperidide; lactam N-9) | 124 | 29 | – |
| CC(C)C[C@@H]1NC(=O)[C@H](Cc2ccccc2)N(C)C(=O)[C@H](CC(C)C)N(C)C(=O)CCN(C)C(=O)C[C@@H](C(=O)N2CCCCC2)NC(=O)[C@H](CC(C)C)N(C)C(=O)[C@H](Cc2ccccc2)N(C)C(=O)[C@H]([C@@H](C)O)NC(=O)[C@H](Cc2ccccc2)N(C)C1=O [DP-126] ([NMeβAla][NMeL][NMeF]L[NMeF]T[NMeF][NMeL]D-Piperidide; lactam N-9) | 239 | 54 | – |
| CC(C)C[C@H]1C(=O)N(C)[C@@H](Cc2ccccc2)C(=O)N(C)[C@@H](CC(C)C)C(=O)N[C@H](C(=O)N2CCCCC2)CC(=O)N[C@H](C(C)C)C(=O)N[C@@H](C)C(=O)N[C@@H]([C@@H](C)O)C(=O)N(C)[C@@H](C)C(=O)N[C@@H](Cc2ccccc2)C(=O)N1C [DP-78] ([dV]AT[NMeA]F[NMeL][NMeF][NMeL]D-Piperidide; lactam N-9) | – | – | microsomal CLint at 1 uM [1, 5]: 57 µL/min/mg; Papp at 18 hours, 50 µM ([2]; pH 6.5): 38 ×10⁻⁶ cm/s |
| CC(C)C[C@H]1C(=O)N[C@@H](Cc2ccccc2)C(=O)N[C@H](C(=O)N(C)[C@@H](Cc2ccccc2)C(=O)N[C@@H](C)C(=O)N2CCCCC2)CC(=O)N(C)CCCC(=O)N[C@@H]([C@@H](C)O)C(=O)N(C)CC(=O)N(C)[C@@H](C)C(=O)N[C@@H](C(C)C)C(=O)N(C)[C@@H](Cc2ccccc2)C(=O)N1C [DP-383] ([NMeGABA]T[Sar][NMeA]V[NMeF][NMeL]FD[NMeF]A-Piperidide; lactam N-9) | 138 | 14 | – |
| CC(C)C[C@H]1C(=O)N(C)[C@@H](C)C(=O)N[C@H](C(=O)N(C)[C@@H](Cc2ccccc2)C(=O)N[C@@H](C)C(=O)N2CCCCC2)CC(=O)N(C)CC(=O)N[C@@H](C(C)C)C(=O)N(C)[C@@H](Cc2ccccc2)C(=O)N(C)[C@@H](CC(C)C)C(=O)N[C@@H]([C@@H](C)O)C(=O)N(C)CC(=O)N1C [DP-388] ([Sar]V[NMeF][NMeL]T[Sar][NMeL][NMeA]D[NMeF]A-Piperidide; lactam N-9) | 41 | 11 | – |
| CC[C@H](C)[C@H]1C(=O)N[C@@H](C)C(=O)N(C)[C@@H](CC(C)C)C(=O)N[C@@H]([C@@H](C)O)C(=O)N[C@@H](Cc2ccccc2)C(=O)N(C)[C@@H](Cc2ccccc2)C(=O)N(C)[C@@H](CC(C)C)C(=O)N[C@@H](COC(C)(C)C)C(=O)N(C)[C@@H](CC(C)C)C(=O)N(C)[C@@H](C)C(=O)N[C@H](C(=O)N2CCCCC2)CC(=O)N[C@H](C(C)C)C(=O)N1C [DP-219] ([dV][NMeI]A[NMeL]TF[NMeF][NMeL]S(tBu)[NMeL][NMeA]D-Piperidide; lactam N-12) | 49 | 1.3 | – |
| CC[C@H](C)[C@@H]1NC(=O)[C@H](CC(C)C)N(C)C(=O)[C@H](C)NC(=O)CN(C)C(=O)[C@H](Cc2ccccc2)NC(=O)[C@H]([C@@H](C)O)NC(=O)[C@H](CC(C)C)N(C)C(=O)CCN(C)C(=O)C[C@@H](C(=O)N2CCCCC2)NC(=O)[C@H](CC(C)C)N(C)C(=O)[C@H](CC(C)C)N(C)C1=O [DP-413] ([NMeβAla][NMeL]TF[Sar]A[NMeL]I[NMeL][NMeL]D-Piperidide; lactam N-11) | 68 | 29 | – |
| CC(C)C[C@H]1C(=O)N(C)[C@@H](Cc2ccccc2)C(=O)N(C)[C@@H](C(C)C)C(=O)N[C@@H](Cc2ccccc2)C(=O)N[C@H](C(=O)N(C)[C@@H](Cc2ccccc2)C(=O)N[C@@H](C)C(=O)N2CCCCC2)CC(=O)N(C)[C@@H](C)C(=O)N[C@@H](C(C)C)C(=O)N(C)[C@@H](CC(C)C)C(=O)N[C@@H]([C@@H](C)O)C(=O)NCC(=O)N1C [DP-191] ([NMeA]V[NMeL]TG[NMeL][NMeF][NMeV]FD[NMeF]A-Piperidide; lactam N-10) | 46 | 34 | – |
